The values below come from patent publication US20060129225A1, “Device for the delivery of a cardioprotective agent to ischemic reperfused myocardium” (priority 2004, published 2006).

SMILES strings stand for the structures. pIC50: −log10 of the molar value.

Data set [1] concerns human coronary artery smooth muscle cells. Put plainly: Anti-proliferative activity in non-synchronized cultured human coronary artery smooth muscle cells stimulated with two percent fetal bovine serum. The data set is classed as cell-based. The source says: The multiple curves represent various concentrations of mycophenolic acid ranging from zero to one thousand nanomolar concentrations.
FIG. 58 illustrates, in graphical format, the anti-proliferative activity of cladribine in non-synchronized cultured human coronary artery smooth muscle cells stimulated with two percent fetal bovine serum.
The multiple curves represent various concentrations of cladribine ranging from zero to nine hundred nanomolar concentrations.

Data set [2] is described as follows: In vivo release kinetics from polymeric stent coatings in porcine pharmacokinetics studies.
Data set [3] concerns human coronary artery smooth muscle cells. The data set is described as follows: Anti-proliferative activity in synchronized cultured human coronary artery smooth muscle cells stimulated with two percent fetal bovine serum. The data set is classed as cell-based. The source says: (§1) The multiple curves represent various concentrations of topotecan ranging from zero to three hundred nanomolar concentrations.
(§2) The multiple curves represent various concentrations of etoposide ranging from zero to eight hundred nanomolar concentrations.
The multiple curves represent various concentrations of Panzem® ranging from zero to 100 micromolar concentrations.

In a further data set the test system is cell viability. The data set is described as follows: Cell viability assay. The data set is classed as cell-based.
From the text: as §1, §2

Data set [4] has as its system human coronary artery smooth muscle cell survival. Put plainly: MTS cytotoxicity assay. The data set is classed as cell-based. The settings on record: concentrations up to 30,000.00 nanomolar (tested from 6.6 nanomolar). The source says:
Typically, a control is utilized to determine baseline toxicity.

Data set [5] relates to human smooth muscle cells. Put plainly: PDGF AB-stimulated proliferation of human smooth muscle cells (cell count, day six). The data set is classed as cell-based. The settings on record: from the IC50 values. How it is done:
To assess the ability of cladribine to prevent cell proliferation, human smooth muscle or endothelial cells (Clonetics, Walkersville, Md.) were seeded at a density of 2000 cells/cm^2 (approximately 3600 cells/well) into each well of 12-well plates and cultured with 1.5 ml of growth medium containing five percent fetal calf serum (FCS). After twenty-four hours, the growth medium was changed and fresh medium containing 10 ng/ml platelet-derived growth factor AB (PDGF AB; LIFE Technologies), as well as various concentrations of cladribine (0.001-10,000 nM) were added with triplicate wells. Medium was replaced with fresh cladribine-containing medium after three days. On day six, cells were detached by trypsinization to yield a cell suspension, lightly centrifuged to pellet and then counted manually using a Neubauer hemocytometer system. Cell viability was assessed by trypan blue exclusion.

A short description of data set [6]: Liquid formulations with Vitamin E TPGS, ethanol and water (HPLC assay, visual observation). The data set is classed as physicochemical. The settings on record: ethanol less than two percent, water.
Data set [7] relates to human coronary artery smooth muscle cell proliferation. The data set is described as follows: In vitro cell culture study of coronary artery smooth muscle cell proliferation. The data set is classed as cell-based. The source says: FIG. 51 is a graph of the inhibition of coronary artery smooth muscle cells by trichostatin A in a cell culture study.
In another data set the test system is tumor cell lines. The settings on record: cited from earlier work.

Broadly, the pIC50 is −log10 of the IC50, conventionally taken in molar units.

Take `COc1c(C)c2c(c(O)c1C/C=C(\C)CCC(=O)O)C(=O)OC2` [mycophenolic acid]: the “effect on the anti-proliferative rapamycin dose response curve” value in data set [1] (mycophenolic acid zero to one thousand nanomolar added to cells treated with rapamycin) is recorded as “potentiates the anti-proliferative activity of rapamycin”. For the same compound, the “in vivo release from coating compared with rapamycin” value in data set [2] (EVA/BMA basecoat with 180 μg rapamycin and 180 μg mycophenolic acid, no, 100 or 200 μg BMA topcoat, porcine) is “elutes more completely over a shorter duration than the rapamycin”.
In the case of `CC[C@@]1(O)C(=O)OCc2c1cc1n(c2=O)Cc2cc3c(CN(C)C)c(O)ccc3nc2-1` [topotecan], in data set [3] (topotecan 18.8 to 300 nanomolar), the “effect of addition to cells treated with rapamycin on percent inhibition” value (“effect of addition … on percent inhibition” for short) is given as “increases the percent inhibition of rapamycin alone”. The “cytotoxicity in a separate cell viability assay” value in the data set with cell viability (concentrations up to one micromolar) is reported as “non-cytotoxic”.
On to `COc1cc2c(cc1O)CC[C@@H]1[C@@H]2CC[C@]2(C)[C@@H](O)CC[C@@H]12` [Panzem®, 2-methoxyestradiol], for which, in data set [3] (Panzem 0.813 to 100 micromolar), the “effect of addition to cells treated with rapamycin on percent of inhibition” value is listed as “increases the percent of inhibition of rapamycin alone”. In data set [3] (Panzem alone, synchronized cells), the “inhibition of human coronary artery smooth muscle cell proliferation in vitro” value is reported as “extremely effective inhibitor”. Besides, the “human coronary artery smooth muscle cell survival (MTS assay)” value in data set [4] is “do not reduce”.
With `CO[C@H]1C[C@@H]2CC[C@@H](C)[C@@](O)(O2)C(=O)C(=O)N2CCCC[C@H]2C(=O)O[C@H]([C@H](C)C[C@@H]2CC[C@@H](O)[C@H](OC)C2)CC(=O)[C@H](C)/C=C(\C)[C@@H](O)[C@@H](OC)C(=O)[C@H](C)C[C@H](C)/C=C/C=C/C=C/1C` [rapamycin], the “in vivo release rate compared with mycophenolic acid” value in [2] (PVDF basecoat six hundred micrograms, PVDF topcoat two hundred micrograms, porcine) is “slower release rate than that of mycophenolic acid”.
Turning to `Nc1nc(Cl)nc2c1ncn2[C@H]1C[C@H](O)[C@@H](CO)O1` [cladribine, 2-chlorodeoxyadenosine], the “effect of addition … on percent inhibition” value in [1] (cladribine 56.25 to 900 nanomolar) was “increases the percent inhibition of rapamycin alone”. In addition, the “inhibition of human coronary artery smooth muscle cell proliferation” value in data set [1] (non-synchronized cells, two percent fetal bovine serum) was “completely inhibits”. The “potency as inhibitor of smooth muscle cells relative to endothelial cells” value in data set [5] is given as “approximately twice”. Further, the “in vivo elution compared with rapamycin” value in data set [2] (EVA/BMA basecoat with rapamycin and cladribine, 200 μg BMA topcoat, Bx Velocity stents, Yorkshire pigs) is “elutes more rapidly than rapamycin”. In data set [2] (PVDF/HFP (85/15) basecoat 1800 μg with thirty percent cladribine, 300 μg topcoat, Bx Velocity stents, Yorkshire pig, after the first day), the “in vivo elution from coating over time” value was “levels off significantly”.
For the compound `COc1cc([C@@H]2c3cc4c(cc3[C@@H](O[C@@H]3O[C@@H]5CO[C@@H](C)O[C@H]5[C@H](O)[C@H]3O)[C@H]3COC(=O)[C@H]23)OCO4)cc(OC)c1O` [etoposide], the “effect of addition … on percent inhibition” value in [3] (etoposide 255.7 to eight hundred nanomolar) was “increases the percent inhibition of rapamycin alone”. Moreover, in the data set on cell viability (concentrations up to ten micromolar), the “cytotoxicity in a cell viability assay” value is on record as “non-cytotoxic”.
`CO[C@H]1C[C@@H]2CC[C@@H](C)[C@@](O)(O2)C(=O)C(=O)N2CCCC[C@H]2C(=O)O[C@H]([C@H](C)C[C@@H]2CC[C@@H](OC(=O)C(C)(CO)CO)[C@H](OC)C2)CC(=O)[C@H](C)/C=C(\C)[C@@H](O)[C@@H](OC)C(=O)[C@H](C)C[C@H](C)/C=C/C=C/C=C/1C` [CCI-779]: the “concentration of CCI-779 in the final solution (HPLC assay)” value in data set [6] stood at 15 mg/mi.
With `CC(/C=C/C(=O)NO)=C\[C@@H](C)C(=O)c1ccc(N(C)C)cc1` [trichostatin A], the pIC50 in data set [7] (human coronary artery smooth muscle cells, read-out: anti-proliferative IC50) was ~8.22. Also, in data set [7] (in vitro cell culture), the “inhibition of human coronary artery smooth muscle cell proliferation” value is listed as “completely inhibit”. The “anti-proliferative IC50” value in the data set on tumor cell lines is listed as “low nM range”.
